# What was measured:
# [1] = test system: M. pneumoniae wild type (laboratory strain M129); assay: Mpn growth inhibition in 96-well plates (growth index A450/A560), wild type strain; type: cell-based, Mycoplasma pneumoniae; details: for MIC (Mpn growth): as stated in the text, strain not specified, 90% growth inhibition
# Description: (§1) A series dilution of each compound in Mycoplasma growth medium was added to Mpn cultures in 96-well plates. The plates were sealed and incubated at 37°C. Mpn growth was monitored by using growth index value e.g. the ratio of absorbance at 450 nm and 560 nm of the culture medium. Thirty nucleoside and nucleobase analogs and a nucleoside transporter inhibitor were included, and two Mpn strains, wild type and a thyA mutant (lacking TS activity), were used.
# (§2) Nucleoside and nucleobase analogs were dissolved in dimethyl sulfoxide (DMSO) as stock solutions and diluted with Mpn culture medium to the desired concentration immediately prior to use.
# (§3) Mpn laboratory strain M129 wild type and a thyA mutant strain [31] were used in this study. Mpn was cultured at 37°C in a CO2 incubator using 75 cm^2 tissue culture flasks containing 50 ml Hayflick’s medium, and harvested at day 4 when the medium color change was observed. The cells were harvested and the pellet was resuspended in 6 ml fresh medium and the cfu/ml was determined by serial dilution (10-fold) and plating on broth agar plate. Colonies was counted and cfu/ml was calculated.
# (§4) Inhibition studies were performed in 96-well plates containing 200 μl Mpn culture (approximately 10^6 cfu ml^-1) in Hayflick’s medium and 200 μl each compound in series dilutions (2-fold) with the growth medium, with three to four replicas. The plates were sealed with clear adhesive sheets and incubated at 37°C incubator. Absorbance ratio at 450 nm and 560 nm was used as Mpn growth index, which was measured daily, and by visual detection for at least 8 days, as previously described. […] The MICs (minimal inhibitory concentration required to inhibit Mpn growth to 90%) were determined as the lowest concentration at which the growth index was ≈ 10% of the control values (at the time when the control culture medium color turned yellow), essentially as described.
# [2] = test system: M. pneumoniae thyA mutant (lacking TS activity); assay: microbe, parasite or virus in culture; type: cell-based, Mycoplasma pneumoniae; details: minimal concentration producing 90% inhibition; thyA mutant Mpn
# Description: as §1, §2, §3, §4
smiles,measurement,setting,value
"O=c1[nH]c(=O)n([C@H]2C[C@H](O)[C@@H](CO)O2)cc1C(F)(F)F [Trifluorothymidine (TFT), Trifluorothymidine]",MIC (Mpn growth),[1]; listed as trifluorothymidine,approximately 2 μg ml^-1
same,MIC (Mpn growth),[1]; listed as trifluorothymidine (TFT),1.8 µg/mL
same,Wild type MIC,"[1]; minimal concentration producing 90% inhibition, wild type Mpn",1.8 µg/mL
same,thyA mutant MIC,[2],1.8 µg/mL

# From publication PMC3750255, “Inhibition of Mycoplasma pneumoniae growth by FDA-approved anticancer and antiviral nucleoside and nucleobase analogs” (BMC Microbiology, 2013)
